Experimental data as given in ChEMBL document CHEMBL4602669, “Bishomoscalarane Sesterterpenoids from the Sponge Dysidea granulosa Collected in the South China Sea” (2020).

What was measured:
Type in all cases: functional
HCT-116 = test: Antiproliferative activity against human HCT116 cells by MTT assay
A549 = test: Antiproliferative activity against human A549 cells by MTT assay
Bel-7402 = test: Antiproliferative activity against human Bel7402 cells by MTT assay
Jurkat = test: Antiproliferative activity against human Jurkat cells by MTT assay
K562 = test: Antiproliferative activity against human K562 cells by MTT assay

| GI50 (HCT-116) [µM] | GI50 (A549) [µM] | GI50 (Bel-7402) [µM] | GI50 (Jurkat) [µM] | GI50 (K562) [µM] | Structure (SMILES) |
| --- | --- | --- | --- | --- | --- |
| > 30 | > 30 | > 30 | > 30 | > 30 | CC[C@@]1(C)CCC[C@]2(C)[C@H]3C[C@H](O)[C@]4(C)C5=C(CC[C@H]4[C@]3(C)CC[C@@H]12)C(=O)C[C@H]5O |
| > 30 | > 30 | > 30 | > 30 | > 30 | CCC(=O)O[C@H]1C[C@@H]2[C@@]3(C)CCC[C@@]4(C[C@@H]4C)[C@@H]3CC[C@@]2(C)[C@@H]2CCC3=C(C(=O)O[C@H]3C)[C@@]12C |
| > 30 | > 30 | > 30 | > 30 | > 30 | CC(O)CC(=O)O[C@H]1C[C@@H]2[C@@]3(C)CCC[C@@]4(C[C@@H]4C)[C@@H]3CC[C@@]2(C)[C@@H]2C[C@@H](O)C3=C([C@H](O)CC3=O)[C@@]12C (stereo partly drawn) |
| > 30 | > 30 | > 30 | > 30 | > 30 | CCC(=O)O[C@@H](C)[C@@]1(C)CCC[C@@]2(C)[C@H]1CC[C@]1(C)[C@@H]2C[C@H](OC(=O)CC(O)CC)[C@]2(C)C3=C(CC[C@@H]12)[C@H](C)OC3=O (stereo partly drawn) |
| > 30 | > 30 | > 30 | > 30 | > 30 | CC(=O)O[C@@H](C)[C@@]1(C)CCC[C@@]2(C)[C@H]1CC[C@]1(C)[C@@H]2C[C@H](OC(=O)CC(C)O)[C@]2(C)C=C(C(C)=O)[C@H](O)C[C@H]21 (stereo partly drawn) |
| > 30 | > 30 | > 30 | > 30 | > 30 | CC/C1=C/CO[C@@]2(C)[C@@H](O)C[C@@H]3[C@@]4(C)CCC[C@](C)(CC)[C@@H]4CC[C@@]3(C)[C@@H]2CC1 |
| > 30 | > 30 | > 30 | > 30 | > 30 | CC(=O)OC(C)CC(=O)O[C@H]1C[C@@H]2[C@@]3(C)CCC[C@](C)([C@H](C)OC(C)=O)[C@@H]3CC[C@@]2(C)[C@@H]2C[C@@H](O)C(C(C)=O)=C[C@@]12C (stereo partly drawn) |
| 14 | 12 | 14 | – | 11 | CC[C@@]1(C)CCC[C@]2(C)[C@H]3C[C@H](OC(=O)CC(C)O)[C@]45C[C@@H](O)[C@H]4C(C(C)=O)=CC[C@H]5[C@]3(C)CC[C@@H]12 (stereo partly drawn) |
| > 30 | > 30 | > 30 | > 30 | > 30 | CCC(O)CC(=O)O[C@H]1C[C@@H]2[C@@]3(C)CCC[C@](C)([C@H](C)OC(C)=O)[C@@H]3CC[C@@]2(C)[C@@H]2C[C@H](O)C(C(C)=O)=C[C@@]12C (stereo partly drawn) |
| 6.4 | 8.1 | 11 | 13 | – | CC(=O)C1=C[C@@]2(C)[C@@H](OC(=O)CC(C)O)C[C@H]3[C@@](C)(CC[C@@H]4[C@]3(C)CCC[C@@]43C[C@@H]3C)[C@@H]2C[C@H]1O (stereo partly drawn) |
| > 30 | > 30 | > 30 | > 30 | > 30 | CC(=O)O[C@H]1C[C@@H]2[C@@]3(C)CCC[C@@]4(C[C@@H]4C)[C@@H]3CC[C@@]2(C)[C@@H]2CCC3=C(C(=O)O[C@@H]3C)[C@@]12C |
| > 30 | > 30 | > 30 | > 30 | > 30 | CCC(=O)O[C@@H](C)[C@@]1(C)CCC[C@@]2(C)[C@H]1CC[C@]1(C)[C@@H]2C[C@H](OC(=O)CC(O)CC)[C@]2(C)C3=C(CC[C@@H]12)[C@@H](C)OC3=O (stereo partly drawn) |
| > 30 | > 30 | > 30 | > 30 | > 30 | CC(=O)O[C@H]1C[C@@H]2[C@@]3(C)CCC[C@@]4(C[C@@H]4C)[C@@H]3CC[C@@]2(C)[C@@H]2CCC3=C(C(=O)O[C@H]3C)[C@@]12C |
| > 30 | > 30 | > 30 | > 30 | > 30 | CC[C@@]1(C)CCC[C@]2(C)[C@H]3C[C@H](OC(=O)CC(C)O)[C@]4(C)C=C(C(C)=O)[C@H](O)C[C@H]4[C@]3(C)CC[C@@H]12 (stereo partly drawn) |
| < 1 | < 1 | < 1 | < 1 | < 1 | COc1cccc2c1C(=O)c1c(O)c3c(c(O)c1C2=O)C[C@@](O)(C(=O)CO)C[C@@H]3O[C@H]1C[C@H](N)[C@H](O)[C@H](C)O1 [DOXORUBICIN] |
